Experiments:
potato plants = test: Greenhouse fine mist foliar spray on potato plants; assay type: in vivo; settings: >2% in 95% ethanol
Procedure: (§1) This experiment was conducted in a greenhouse setting. Tomato seedlings in 4 to 6 true-leaf stage and 3-5 inch tall potato plants were treated with a fine mist spray comprising a solution of >2% 2-undecanone in 95% ethanol.

Tomato seedlings = test: Greenhouse fine mist foliar spray on tomato seedlings; assay type: in vivo
Procedure: as §1

wild-type grass = test: Spray treatment of test plots of wild-type grass; assay type: in vivo, grass (monocotyledon)
Procedure: Two experiments were initiated that tested the activity of an acyclic ketone on a common monocotyledon. The test plots comprised similar areas of wild-type grass. The area of each test plot of grass was defined to be the area within a square measuring approximately 15 inches on a side. The experiments were conducted using two different formulations of the same test material: the formulation tested in Experiment 6 comprised a 5% (wt/vol) mixture of undecanone in absolute ethanol; the formulation tested in Experiment 7 comprised a 5% (wt/vol) mixture of undecanone in water.
A measured amount of each formulation was sprayed onto its appropriate test area using a hand held spray bottle; the spray bottle produced a fine mist in each case. […] The details of each experiment are provided separately below.
In Experiment 6, 40 ml of a 5% formulation of the test material in ethanol (wt/vol) was evenly sprayed on one of two adjacent test plots of grass. This treated plot was located on the right side of the test plot pair. The adjacent test plot (left; control plot) was sprayed in an identical fashion with a spray bottle containing 40 mL of the ethanol carrier as a control; the time difference for completing the spraying of the two grassy test plots was less than 2 minutes. The effects of the spray formulations on the test plots were noted over time and images were captured at several time points for later comparisons (see FIGS. 5A, 5B and 5C for images). FIGS. 5A, 5B and 5C are images showing the effects of spraying a 5% formulation of the test material in ethanol and ethanol control on test plots of grass in accordance with embodiments of the present disclosure.
Visible differences were observed within a 30 minute period following the spray applications of control and test compound formulations comprising ethanol. […] The appearance of the plots at the one-hour time point are shown in the FIG. 5B image, and the appearance of the plots at the twenty four-hour time point are shown in the FIG. 5C image.
The conditions and amounts of materials used in Experiment 7 were similar to those employed in Experiment 6, with the exception that both the formulation comprising the active ingredient and the solution of carrier comprised water in the place of ethanol. In Experiment 7, the early toxicity effects were delayed compared to the early toxicity effects noted in Experiment 6. […] The appearance of the areas treated with the formulation comprising water were photographed at the 24 hour time point and can be seen in the image of FIG. 6B.

bean plants = test: Herbicidal spray treatment on bean plants; assay type: in vivo; settings: 20% solution (wt/vol) in absolute ethanol, sprayed to run off
Procedure: Experiment 3 exemplifies the herbicidal activity of 2-undecanone on bean plants. The bean plant on the left in FIG. 3 was treated with a 20% solution (wt/vol) of 2-undecanone in a carrier comprising absolute ethanol. The bean plant on the right was treated with the absolute ethanol carrier only. Treatments were made by spraying each plant until “run off” levels were achieved. […] In contrast, the plant on the right (ethanol control) never differed in appearance from the no-spray controls (not shown). […] All treatments of the bean plants described above were performed in North Carolina during the summer months under a shelter; the bean plants were protected from the elements but were watered regularly. The plants also received direct sunlight for about 8 hours from approximately noon until sunset.

wild henbit = test: Herbicidal spray treatment on henbit under winter field conditions; assay type: in vivo, henbit (Lamium amplexicaule)
Procedure: FIG. 1 is an image showing results of tests used to determine the herbicidal activity of a spray treatment comprising the use of a 5% solution of 2-undecanone in ethanol. The image was captured approximately 2 hours after the spray-applications of materials to henbit under winter field conditions. Both of the weed groups shown in FIG. 1 are groups of wild henbit. Treatment of the group of henbit plants on the left side of FIG. 1 (control group) consisted of spraying the group with 100 ml of the carrier as a fine mist; the carrier comprised absolute ethanol (without the herbicide). Treatment of the group of henbit plants on the right side of FIG. 1 (treatment group) consisted of spraying the group with 100 ml of the herbicide/carrier mixture (5 wt % of 2-undecanone/100 mL solution) as a fine mist. The image was captured 2 hours after treatment.
Because the sprayer produced a very fine mist in each case, and there may have been spray drift (from the wind) during these treatments, evaporation and dissipation of these misty sprays occurred to some degree before and while each spray hit its targeted group of plant material.
Experiment 2 is similar to Experiment 1, in that it tests the herbicidal activity of an experimental spray treatment on henbit. The herbicidal spray treatments of Experiment 2 comprised the use of a 20% solution of 2-undecanone in ethanol (20 wt % of 2-undecanone/100 mL solution). The experimental results are featured in FIGS. 2A, 2B and 2C, the henbit treatment group receiving the 2-undecanone spray treatment is located on the right side of the image shown in FIG. 2A. The control group was treated with a spray comprising just the carrier (absolute ethanol); the henbit treatment group receiving this carrier-only spray treatment (control group) is located on the left side of the image shown in FIG. 2A. The image was captured 4 days after the spray-applications of these materials to the groups of henbit under winter field conditions. […]

For `CCCCCCCCCC(C)=O` [2-undecanone], the “time to death of the plants' foliage” value (potato plants; 3-5 inch tall plants) was ≤ 24 h, the “subsequent outcome after foliage death” value (potato plants; fine mist to foliage) was “plant death” and the “subsequent outcome after foliage death” value (Tomato seedlings; >2% in 95% ethanol, fine mist to foliage) was “plant death”. For the same molecule, the “time to death of the plants' foliage” value (Tomato seedlings; >2% in 95% ethanol, fine mist to foliage, seedlings in 4 to 6 true-leaf stage) was ≤ 24 h, the “effect on tomato plants at low concentration” value (Tomato seedlings; less than 1% in 95% ethanol, similar application) was “death of foliage followed by re-foliation some days later” and the “course of herbicidal toxicity over time” value (wild-type grass; Experiment 6: 5% (wt/vol) in ethanol, up to 24 hours) was “increase with time”. The “time to visible differences versus control plot” value (wild-type grass; Experiment 6: 40 ml of 5% (wt/vol) in ethanol) was ≤ 30 min, the “appearance of treated grass” value (wild-type grass; Experiment 6: 40 ml of 5% (wt/vol) in ethanol, after 30 minutes) was “appeared brown” and the “time to first toxicity effects after spraying” value (wild-type grass; Experiment 7: 5% (wt/vol) in water) was 2 to 3 h. The “visual appearance of water-carrier plots compared with ethanol-carrier plots” value (wild-type grass; Experiment 7: 5% (wt/vol) in water, at 24 hours) was “similar”, the “leaf color of treated bean plant” value (bean plants; 2 weeks after treatment) was “yellow” and the “onset of change in appearance of treated bean plant” value (bean plants; day of treatment) was “started to change its appearance and character shortly after the spray treatment was complete”. For the same molecule, the “changes in color and vitality of treated henbit plants” value (wild henbit; 5% solution in ethanol, 100 ml fine mist, below run-off, approximately 2 hours after treatment) was “had lost much of their green color and vitality, and had turned yellow”, the “overall state of treated henbit group versus control” value (wild henbit; 20% (wt/vol) in absolute ethanol, 100 ml spray, 4 days after treatment) was “appeared to be dead or dying” and the “effect on stems of treated henbit plants” value (wild henbit; 20% (wt/vol) in absolute ethanol, 100 ml spray, below run-off, 4 days after treatment) was “had become significantly weakened and had become flaccid”.

— patent publication US20130005573A1, “COMPOSITIONS AND METHODS OF USE FOR KETONES AND ALDEHYDES AS HERBICIDES” (North Carolina State University, priority 2010, published 2013)
